The test deals with T1, N-terminally GST-tagged human full length recombinant Mps-1 kinase (Homo sapiens, UniProt P33981).
T1 construct: N-terminally GST-tagged human full length recombinant Mps-1 kinase; purchased Invitrogen, Karslruhe, Germany PV4071
T1 sequence (P33981 1-857): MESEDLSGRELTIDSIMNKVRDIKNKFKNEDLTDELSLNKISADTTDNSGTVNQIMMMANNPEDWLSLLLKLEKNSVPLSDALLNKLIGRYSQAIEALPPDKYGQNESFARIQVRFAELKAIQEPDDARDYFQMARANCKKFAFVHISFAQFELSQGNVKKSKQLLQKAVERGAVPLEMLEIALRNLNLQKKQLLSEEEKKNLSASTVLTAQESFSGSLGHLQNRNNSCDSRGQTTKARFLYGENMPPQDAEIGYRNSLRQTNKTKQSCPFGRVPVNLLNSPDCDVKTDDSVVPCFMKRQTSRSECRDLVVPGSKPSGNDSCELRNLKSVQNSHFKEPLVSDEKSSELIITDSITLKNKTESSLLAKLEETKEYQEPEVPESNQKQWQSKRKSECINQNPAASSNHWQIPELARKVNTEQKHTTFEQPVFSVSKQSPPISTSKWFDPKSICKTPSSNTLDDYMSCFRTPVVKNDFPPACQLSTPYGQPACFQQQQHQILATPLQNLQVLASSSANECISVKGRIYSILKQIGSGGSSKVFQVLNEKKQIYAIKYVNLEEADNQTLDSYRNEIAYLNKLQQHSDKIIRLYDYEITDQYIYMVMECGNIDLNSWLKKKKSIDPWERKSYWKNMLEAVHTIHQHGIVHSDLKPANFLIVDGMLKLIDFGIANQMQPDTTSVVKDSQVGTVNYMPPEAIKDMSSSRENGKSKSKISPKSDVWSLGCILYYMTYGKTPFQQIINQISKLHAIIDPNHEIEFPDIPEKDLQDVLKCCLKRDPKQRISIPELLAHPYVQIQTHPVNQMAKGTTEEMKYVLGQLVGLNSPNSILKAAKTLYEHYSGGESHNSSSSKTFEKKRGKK
The test can be described thus: Mps-1 kinase assay (TR-FRET). The note with it: Mps1 IC50 [nM], 10 μM ATP, 1 μM peptide substrate, 60 min at 22° C. The test is classed as biochemical. The gist of the method: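 Next, Eu-labelled anti-phospho(Ser/Thr) antibody and SA-XLent bind for 1 h at 22° C. Finally, energy transfer quantifies phosphorylated product.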
(Time-resolved FRET reads energy transfer from a long-lived donor to a nearby acceptor.)
What is called IC50 is the midpoint of a concentration-inhibition curve. `COc1ccc(C)c(Nc2cc(NCC(C)(C)O)c3ncc(-c4ccc(C(=O)NC5CC5)c(C)c4)n3n2)c1` [Example 349, N-cyclopropyl-4-{8-[(2-hydroxy-2-methylpropyl)amino]-6-[(5-methoxy-2-methylphenyl)amino]imidazo[1,2-b]pyridazin-3-yl}-2-methylbenzamide]: the IC50 turned out to be 0.4 nM.
Turning to `Cc1ccccc1-c1cc(NCC(C)C)c2ncc(-c3ccc(C(=O)NC4CC4)cc3)n2n1` [Example 110], the IC50 was 1.3 nM.
Regarding `Cc1cc(-c2cnc3c(NCCC(F)(F)F)cc(Nc4ccc(F)cc4)nn23)ccc1C(=O)NC1CC1` [Example 358, N-cyclopropyl-4-{6-[(4-fluorophenyl)amino]-8-[(3,3,3-trifluoropropyl)amino]imidazo[1,2-b]pyridazin-3-yl}-2-methylbenzamide], the IC50 came to 0.1 nM.
Then `Cc1cc(F)cc(Nc2cc(NCC(C)(C)O)c3ncc(-c4ccc(C(=O)NC5CC5)c(C)c4)n3n2)c1` [Example 394, N-cyclopropyl-4-{6-[(3-fluoro-5-methylphenyl)amino]-8-[(2-hydroxy-2-methylpropyl)amino]imidazo[1,2-b]pyridazin-3-yl}-2-methylbenzamide], with 0.2 nM.
Consider `Cc1cc(-c2cnc3c(NCC4CCOCC4)cc(-c4ccccc4CO)nn23)ccc1C(=O)NC1CC1` [Example 346, N-cyclopropyl-4-{6-[2-(hydroxy-methyl)phenyl]-8-[(tetrahydro-2H-pyran-4-ylmethyl)amino]imidazo[1,2-b]pyridazin-3-yl}-2-methyl-benzamide], for which the IC50 was 1.6 nM.
For `CC(C)CNc1cc(-c2cccc(Cl)c2Cl)nn2c(-c3ccc(C(=O)NC4CC4)cc3)cnc12` [Example 131, N-cyclopropyl-4-{6-(2,3-dichlorophenyl)-8-[(2-methylpropyl)amino]imidazo[1,2-b]pyridazin-3-yl}benzamide] the value was 10 nM.
Then `Cc1cc(-c2cnc3c(NCCC(F)(F)F)cc(Sc4cc(F)ccc4F)nn23)ccc1C(=O)NC1CC1` [Example 255, N-cyclopropyl-4-{6-[(2,5-difluorophenyl)sulfanyl]-8-[(3,3,3-trifluoropropyl)amino]imidazo[1,2-b]pyridazin-3-yl}-2-methylbenzamide], with 0.2 nM; and `Cc1ccc(Sc2cc(NCC(C)(C)O)c3ncc(-c4ccc(C(=O)NC5CC5)c(C)c4)n3n2)cc1F` [Example 66, N-cyclopropyl-4-{6-[(3-fluoro-4-methylphenyl)sulfanyl]-8-[(2-hydroxy-2-methylpropyl)amino]imidazo[1,2-b]pyridazin-3-yl}-2-methylbenzamide], with 0.2 nM; and `c1cc(-c2cc(NC[C@H]3CCCO3)c3ncc(-c4ccc(-c5cnc(C6CC6)[nH]5)cc4)n3n2)ccn1` [Example 5, 3-[4-(2-Cyclopropyl-1H-imidazol-5-yl)phenyl]-6-(pyridin-4-yl)-N-[(2R)-tetrahydrofuran-2-ylmethyl]imidazo[1,2-b]pyridazin-8-amine], with 13.3 nM.
Regarding `Cc1cc(-c2cnc3c(NCCC(F)(F)F)cc(OCC(F)(F)C(F)(F)CO)nn23)ccc1C(=O)NC1CC1` [Example 278A, N-cyclopropyl-2-methyl-4-{6-(2,2,3,3-tetrafluoro-4-hydroxybutoxy)-8-[(3,3,3-trifluoropropyl)amino]imidazo[1,2-b]pyridazin-3-yl}benzamide], the IC50 stood at 0.4 nM.
In the case of `Cc1cc(-c2cnc3c(NCC(C)(C)O)cc(-c4ccncc4)nn23)ccc1C(=O)NC1CC1` [Example 230, N-cyclopropyl-4-{8-[(2-hydroxy-2-methylpropyl)amino]-6-(pyridin-4-yl)imidazo[1,2-b]pyridazin-3-yl}-2-methylbenzamide], the IC50 was determined as 2.7 nM.
Take `Cc1cc(-c2cnc3c(NCCC(F)(F)F)cc(Nc4cccc(C(C)C)c4)nn23)ccc1C(=O)NC1CC1` [Example 433, N-cyclopropyl-2-methyl-4-(6-{[3-(propan-2-yl)phenyl]amino}-8-[(3,3,3-trifluoropropyl)amino]imidazo[1,2-b]pyridazin-3-yl)benzamide]: the IC50 stood at 0.6 nM.

Values taken from US9255100B2 (BAYER INTELLECTUAL PROPERTY GMBH, priority 2010, dated 2016).
